Article PMC12040169 (PLOS Biology, 2025)

Assay: in vitro
Conditions: human, hela cells

| SMILES | viability at 28.5 h, 10 µM (% viability) [%] | viability at 28.5 h, 10 µM [%] |
| --- | --- | --- |
| CCc1c(C)nc2c(C(=O)NCCOC)cnn2c1C [CBK162143] | 93.9 | – |
| CCc1c(C)nc2c(C(=O)N3CCCC3COC)cnn2c1C (stereo not shown) [CBK162146] | 92.1 | – |
| Cc1nc2c(C(=O)NCCCN3CCCC3=O)cnn2c(C)c1Cc1cccnc1 [CBK162151] | 108 | – |
| CCOCCCNC(=O)c1cnn2c(C)c(Cc3cccnc3)c(C)nc12 [CBK162152] | 100 | – |
| Cc1nc2c(C(=O)NCCC3OCCO3)cnn2c(C)c1Cc1cccnc1 [CBK162159] | 108 | – |
| Cc1nc2c(C(=O)NCC3CCCO3)cnn2c(C)c1Cc1cccnc1 (stereo not shown) [CBK162160] | 85.8 | – |
| COc1ccc(Cc2c(C)nc3c(C(=O)NCC4CCCO4)cnn3c2C)cc1 (stereo not shown) [CBK162183] | 88.5 | – |
| Cc1nc2c(C(=O)N3CCOCC3)cnn2c(C)c1Cc1ccccc1 [CBK162201] | 113 | – |
| Cc1nc2c(C(=O)NCC(F)(F)F)cnn2c(C)c1Cc1ccccc1 [CBK162208] | 94.8 | – |
| COCC1CCCN1C(=O)c1cnn2c(C)c(Cc3ccccc3)c(C)nc12 (stereo not shown) [CBK162213] | 93.9 | – |
| COCCCNC(=O)c1cnn2c(C)c(Cc3ccccc3)c(C)nc12 [CBK162216] | 94.6 | – |
| CS(=O)(=O)c1ccc(-c2ccc(COC3CCN(C(=O)CCCc4ccc(F)cc4)CC3)cn2)cc1 [CBK162229T] | 91.6 | – |
| CS(=O)(=O)c1ccc(-c2ccc(COC3CCN(C(=O)Cc4cccc(C(F)(F)F)c4)CC3)cn2)cc1 [CBK162231T] | 102 | – |
| COc1ccc(C(=O)CN2CCC3(CC2)CC(=O)c2cc(Br)ccc2O3)cc1 [CBK162265] | 114 | – |
| CS(=O)(=O)c1ccc(-c2ccc(OCC3CCN(C(=O)c4cccc(C#N)c4)CC3)nc2)cc1 [CBK162283] | 93.3 | – |
| O=C(Nc1ccc2c(c1)OCCO2)N1CCN(c2cc(C(F)(F)F)ccn2)CC1 [CBK162331] | 99.4 | – |
| COc1ccc(CNC(=O)N2CCN(c3cc(C(F)(F)F)ccn3)CC2)cc1OC [CBK162344] | 82.5 | – |
| COc1cc(NC(=O)N2CCN(c3cc(C(F)(F)F)ccn3)CC2)cc(OC)c1OC [CBK162349] | 95.2 | – |
| O=C1C2CCCCN2C(=O)N1c1cccnc1 (stereo not shown) [CBK162359] | 114 | – |
| CSCCCN1C(=O)CN(Cc2ccccc2)C1=O [CBK162363] | 91.4 | – |
| O=C1CN(Cc2ccccc2)C(=O)N1CC1CCCCC1 [CBK162367] | 93.7 | – |
| COCCN1C(=O)CN(Cc2ccccc2)C1=O [CBK162369] | 95.1 | – |
| CS(=O)(=O)c1ccc(-c2ccc(CN3CCN(C(=O)Cc4ccc(F)cc4F)CC3)cn2)cc1 [CBK162618T] | 122 | – |
| Cc1ccc(S(=O)(=O)N(Cc2c(F)cccc2F)C2CCNCC2)cc1 [CBK163927T] | 89.9 | – |
| CCCCc1ccc(N)c(C)c1 [CBK164057C] | 89.9 | – |

| SMILES | viability at 28.5 h, 10 µM (% viability) [%] | viability at 28.5 h, 10 µM [%] |
| --- | --- | --- |
| CN(Cc1ccc(-c2ccc(S(C)(=O)=O)cc2)nc1)C1CCN(C(=O)c2ccc(Cl)c(Cl)c2)CC1 [CBK164101T] | 104 | – |
| CN(Cc1ccc(-c2ccc(S(C)(=O)=O)cc2)nc1)C1CCN(C(=O)CC2CCCCC2)CC1 [CBK164105T] | 92.6 | – |
| O=C(N1CCC(Oc2nccnc2OCc2ccc(Cl)cc2F)CC1)C(F)(F)F [CBK164142] | 89.5 | – |
| COc1cc(C(=O)N2CCC3(CC2)CC(=O)c2cc(C)c(C)cc2O3)ccc1C [CBK164202] | 105 | – |
| O=C(c1n[nH]nc1-c1ccccc1)N1CCCC(C(F)(F)F)C1 (stereo not shown) [CBK164228] | 96.1 | – |
| COc1cc(OC)cc(C(=O)N2CCC3(CC2)CC(=O)c2c(OC)cc(OC)cc2O3)c1 [CBK164233] | 105 | – |
| COc1ccc(CCNC(=O)c2cnc(-c3ccc(Cl)cc3)c(-c3cccc(CNC(C)=O)c3)c2)cc1OC [CBK164413] | 95 | – |
| CCCN(C)Cc1ccc(-c2nnn(CC(=O)NCc3ccc(CC)cc3)n2)cc1NC(C)=O [CBK164703] | 105 | – |
| CCCN(C)Cc1ccc(-c2cn(CC(=O)NCc3ccc(C(F)(F)F)cc3)nn2)cc1 [CBK164719] | 92.9 | – |
| Cc1c(S(=O)(=O)N2CCC(N)C2)sc2ccc(Cl)cc12 (stereo not shown) [CBK164970] | 89.3 | – |
| CC(C)(C)c1ccc(N(C2CCNCC2)S(=O)(=O)c2cccc(C(F)(F)F)c2)cc1 [CBK165056T] | 114 | – |
| CC(C)(C)c1ccc(N(C2CCNCC2)S(=O)(=O)c2ccc(Cl)cc2Cl)cc1 [CBK165067T] | 51 | – |
| Cc1ccccc1S(=O)(=O)N(c1ccc(C(C)(C)C)cc1)C1CCNCC1 [CBK165074T] | 97.8 | – |
| COc1ccc(S(=O)(=O)N(c2ccccc2)C2CCNCC2)cc1OC [CBK165076T] | 73.9 | – |
| CC(C)c1ccc(S(=O)(=O)N(c2ccccc2)C2CCNCC2)cc1 [CBK165088T] | 108 | – |
| CCCc1ccc(S(=O)(=O)N(c2ccccc2)C2CCNCC2)cc1 [CBK165121T] | 108 | – |
| COc1cccc(OCc2cnc(-c3ccc(Cl)cc3)c(-c3cccc(CNC(C)=O)c3)c2)c1 [CBK165225] | 90.5 | – |
| COCCOC(=O)N1CCC(N(C)Cc2ccc(-c3ccc(S(C)(=O)=O)cc3)nc2)CC1 [CBK165258T] | 96.7 | – |
| CC(=O)OCC(=O)N1CCC(N(C)Cc2ccc(-c3ccc(S(C)(=O)=O)cc3)nc2)CC1 [CBK165268] | 116 | – |
| CC(C)OC(=O)N1CCC(CNc2ncc(-c3ccc(S(C)(=O)=O)cc3)cn2)CC1 [CBK165367] | 99.1 | – |
| CC(C)OC(=O)N1CCC(N(C)Cc2ccc(-c3ccc(S(C)(=O)=O)cc3)cn2)CC1 [CBK165581T] | 90.8 | – |
| CN(Cc1ccc(-c2ccc(S(C)(=O)=O)cc2)cn1)C1CCN(C(=O)CC(C)(C)O)CC1 [CBK165684T] | 93.1 | – |
| CCc1nc2c(C(=O)NCCNC(C)=O)cnn2c(CC)c1Cc1ccc(Cl)cc1 [CBK165730] | 86 | – |
| O=C(Cn1cc(-c2ccc(CN3CCOCC3)cc2)nn1)NCc1cccc(C(F)(F)F)c1 [CBK165803] | 87.5 | – |
| COc1ccc(C(=O)N2CCC(N(C)Cc3ccc(-c4ccc(S(C)(=O)=O)cc4)nc3)CC2)cc1Cl [CBK165991T] | 95.8 | – |

| SMILES | viability at 28.5 h, 10 µM (% viability) [%] | viability at 28.5 h, 10 µM [%] |
| --- | --- | --- |
| Cc1ccc2c(c1)OC1(CCN(C(=O)c3cc4c(C)nn(C)c4s3)CC1)CC2=O [CBK166037] | 79.5 | – |
| COc1cc(C(=O)N2CCC3(CC2)CC(=O)c2ccc(C)cc2O3)ccc1O [CBK166045] | 86.6 | – |
| CN(CC1CCN(C(=O)OC(C)(C)C)CC1)c1ccnc(-c2ccncc2)n1 [CBK166064] | 101 | – |
| [2H]C(C(=O)NCc1ccc2c(c1)CCC2)n1cc(-c2ccc(CN3CCC(C)CC3)cc2)nn1 (stereo not shown) [CBK166081-L1] | 97.7 | – |
| CC(C)Nc1nc2ccccc2nc1OCc1ccc(C2CC2C(=O)N(C)C)cc1 (stereo not shown) [CBK166091] | 92.5 | – |
| CN(Cc1ccc(-c2ccc(S(C)(=O)=O)cc2)nc1)C1CCN(C(=O)Oc2ccc(F)cc2)CC1 [CBK166097] | – | 91.5 |
| CC1CCN(Cc2ccc(-c3ccc(CNC(=O)c4ccc5c(c4)OC(F)(F)O5)s3)cc2)CC1 [CBK166113] | 107 | – |
| CCOc1cc(OCC)cc(C(=O)N2CCC3(CC2)NC(=O)c2ccc(C)cc2O3)c1 [CBK166215] | 117 | – |
| COc1cc(C(=O)N2CCC3(CC2)NC(=O)c2cc(C)ccc2O3)cc(OC)c1C [CBK166273] | 91 | – |
| COc1cc(C(=O)N2CCC3(CC2)NC(=O)c2cc(C)ccc2O3)ccc1C [CBK166276] | 108 | – |
| COc1ccc(C(=O)N2CCC3(CC2)NC(=O)c2cc(C)ccc2O3)cc1C [CBK166277] | 89 | – |
| CCOc1cc(OCC)cc(C(=O)N2CCC3(CC2)NC(=O)c2cc(I)ccc2O3)c1 [CBK166301] | 94.1 | – |
| COc1cc(OC)cc(C(=O)N2CCC3(CC2)NC(=O)c2ccc(OC)cc2O3)c1 [CBK166328] | 106 | – |
| COc1ccc(C)cc1NC(=O)N1CCC2(CC1)CC(=O)c1ccc(C)cc1O2 [CBK166520] | 91.4 | – |
| Cc1nc2c(C(=O)NCCOCCO)cnn2c(C)c1Cc1ccc(F)c(Cl)c1 [CBK167457] | 96.3 | – |
| O=C(Cn1cc(-c2ccc(CN3CCCCC3)cc2)nn1)NCc1ccc(OC(F)F)cc1 [CBK167514] | 96 | – |
| CC1CCN(Cc2ccc(-c3cn(CC(=O)NCc4ccc(OC(F)(F)F)c(F)c4)nn3)cc2)CC1 [CBK167536] | 87.3 | – |
| O=C(Cn1cc(-c2ccc(CN3CCCCC3)cc2)nn1)NCc1ccc(C2CCC2)cc1 [CBK167547] | 86.6 | – |
| CCc1ccc(CNC(=O)Cn2cc(-c3ccc(CN4CCC(CO)CC4)cc3)nn2)cc1 [CBK167551] | 105 | – |
| O=C(Cn1cc(-c2ccc(CN3CCCCC3)cc2)nn1)NCc1ccc(Cl)cc1Cl [CBK167689] | 83.2 | – |
| Cc1c(S(=O)(=O)Nc2cccc(C(=O)OCC3CCCN(C)C3)c2)sc2ccc(Cl)cc12 (stereo not shown) [CBK167735G] | 109 | – |
| COc1cc(C(=O)N2CCC3(CC2)CC(=O)c2cc(C)ccc2O3)cc(OC)c1C [CBK167805] | 99.6 | – |
| CC(C)(C)OC(=O)N1CCC(COc2ccc(-c3ccc(S(C)(=O)=O)cc3)nc2)CC1 [CBK167839] | 108 | – |
